Experimental data from patent publication US11168102B1, “Bicyclic heteroaryl compounds and uses thereof” (Revolution Medicines, Inc., priority 2019, dated 2021).

Columns and labels:
[1] = target: SOS1 catalytic domain (residues 564-1049) (Homo sapiens (Human), UniProt Q07889); experiment: Potency assay: binding affinity to SOS1 by Surface Plasmon Resonance (SPR); settings: avi-tagged SOS1 catalytic domain immobilized on sensor chip; 1:1 equilibrium binding fit
[2] = tested on: cellular pERK in PC-9 cells (EGFR Ex19Del); experiment: Potency assay: pERK (AlphaLISA SureFire Ultra p-ERK1/2) in PC-9 cells; assay type: cell-based; settings: Homo sapiens, PC-9, 1 h, PC-9 cells (EGFR Ex19Del), 1 hour incubation, AlphaLISA SureFire Ultra p-ERK1/2; read-out: SOS1 pERK IC50
[3] = target: SOS1 nucleotide exchange of wild-type KRAS (Homo sapiens (Human), UniProt Q07889); experiment: Mode of action assay: inhibition of SOS1 nucleotide exchange activity (TR-FRET); assay type: biochemical; settings: SOS1 catalytic domain (564-1049), avi-tagged KRAS (1-169), EDA-GTP-DY-647P1; three replicates
SOS1 nucleotide exchange of wild-type KRAS, sequence (Q07889 564-1049): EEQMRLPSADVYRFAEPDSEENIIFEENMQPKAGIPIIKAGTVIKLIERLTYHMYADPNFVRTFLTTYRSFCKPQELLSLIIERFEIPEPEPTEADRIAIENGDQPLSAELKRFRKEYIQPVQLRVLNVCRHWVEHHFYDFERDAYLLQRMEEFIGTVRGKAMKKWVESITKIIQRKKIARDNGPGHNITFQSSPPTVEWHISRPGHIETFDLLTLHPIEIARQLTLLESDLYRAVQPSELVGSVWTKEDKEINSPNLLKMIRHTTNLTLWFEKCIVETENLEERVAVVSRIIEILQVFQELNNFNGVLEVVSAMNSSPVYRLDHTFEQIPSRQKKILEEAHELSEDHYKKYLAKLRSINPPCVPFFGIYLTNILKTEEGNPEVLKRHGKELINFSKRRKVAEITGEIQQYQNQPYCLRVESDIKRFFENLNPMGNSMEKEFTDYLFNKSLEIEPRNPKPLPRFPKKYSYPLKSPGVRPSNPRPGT

SOS1 catalytic domain (residues 564-1049), sequence (Q07889 564-1049): as above

Structure (SMILES) | Kd [1] [nM] | IC50 [2] [nM] | IC50 [3] [nM]
C[C@@H](Nc1ncnc2c1cc(C1=C[C@@H]3CNC[C@H](C1)O3)c(=O)n2C)c1cccc(C(F)F)c1F [Example 1-15] | 6.29 | 217 | 39.8
C[C@@H](Nc1ncnc2c1cc(C1=CCS(=O)(=O)CC1)c(=O)n2C)c1cccc(C(F)F)c1F [Example 1-17] | 21.3 | 50.7 | 13
Cc1nc(N[C@H](C)c2cccc(C(F)F)c2F)c2cc(C3=CCNCC3)c(=O)n(C)c2n1 [Example 1-9] | 74 | 666 | 48.9
C[C@@H](Nc1ncnc2c1cc(C1CCOCC1)c(=O)n2C)c1cccc(C(F)F)c1F [Example 1-30] | 20.1 | 143 | 45.8
C[C@@H](Nc1ncnc2c1cc(C(=O)N1CC(O)(C(F)(F)F)C1)c(=O)n2C)c1cccc(C(F)F)c1F [Example 26-41] | 420 | 1400 | 170
COc1ncccc1-c1cc2c(N[C@H](C)c3cccc(C(F)F)c3F)nc(C)nc2n(C)c1=O [Example 21-9] | 338 | 335 | 99
C[C@@H](Nc1ncnc2c1cc(C(=O)N1CCn3ccnc3C1)c(=O)n2C)c1cccc(C(F)F)c1F [Example 26-31] | 322 | 2820 | 230
C[C@@H](Nc1ncnc2c1cc(C(=O)N1CCN(C)c3ncccc31)c(=O)n2C)c1cccc(C(F)F)c1F [Example 26-49] | 311 | 959 | 176
Cc1nc(N[C@H](C)c2cccc(C(F)F)c2F)c2cc(N3CCNCC3=O)c(=O)n(C)c2n1 [Example 2-4] | 153 | 906 | 89.2
C[C@@H](Nc1ncnc2c1cc(C(=O)N1CC(F)C1)c(=O)n2C)c1cccc(C(F)F)c1F [Example 26-1] | 285 | 994 | 162
C[C@@H](Nc1ncnc2c1cc(C1(O)CCS(=O)(=O)C1)c(=O)n2C)c1cccc(C(F)F)c1F (stereo partly drawn) [Example 28-3] | 128 | 111 | 99.8
C[C@@H]1CN(C(=O)c2cc3c(N[C@H](C)c4cccc(C(F)F)c4F)ncnc3n(C)c2=O)C[C@@H](C)O1 [Example 26-21] | 114 | 520 | 24.9
CC(=O)N1CC=C(c2cc3c(N[C@H](C)c4cccc(C(F)F)c4C)ncnc3n(C)c2=O)CC1 [Example 1-11] | 54.6 | 77 | 29.3
CC(=O)N1CCC(F)(c2cc3c(N[C@H](C)c4cccc(C(F)F)c4F)ncnc3n(C)c2=O)CC1 [Example 29-5] | 37.4 | 37.3 | 14.8
C[C@@H](Nc1ncnc2c1cc(C1(F)CCN(C)CC1)c(=O)n2C)c1cccc(C(F)F)c1F [Example 29-3] | 41.6 | 120 | 42.4
C[C@@H](Nc1ncnc2c1cc(C(=O)N1CCn3cncc3C1)c(=O)n2C)c1cccc(C(F)F)c1F [Example 26-30] | 260 | 656 | 86.1
Cc1nc(N[C@H](C)c2cccc(C(F)F)c2F)c2cc(-c3cccnc3OCCO)c(=O)n(C)c2n1 [Example 21-11] | 234 | 452 | 173
C[C@@H]1COC[C@H](C)N1C(=O)c1cc2c(N[C@H](C)c3cccc(C(F)F)c3F)ncnc2n(C)c1=O [Example 26-25] | 350 | 605 | 106
